# Assay results published in a melting point compilation (Tetko et al.; mined from patent text by program, amines drawn as free bases though some values may be those of a salt).
row,Structure (SMILES),melting point [°C]
1,"Oc1ccc(CC2NCCC3=C2CCCC3)cc1 (single isomer, unassigned; (+))",154 to 156
2,Cc1cc(-c2cccc(Cl)c2C=O)ccc1F,74 to 79
3,CCOC(=O)c1cnn2c1c(O)nc1ccccc12,249 to 251
4,CC(C)(CCl)C(=O)NCc1ccc(Cl)cc1,97 to 98
5,CN1Cc2c(C#CC(C)(C)O)ncn2-c2ccc(F)cc2C1=O,163 to 164
6,NC(=NOCC1CC1)c1c(F)cccc1C(F)(F)F,63 to 64
7,COc1ccc(CNc2ncnc3c(N4CCOCC4)nc(N4CCC(N(C)C)CC4)nc23)cc1,124 to 126
8,CCN1CCc2ccc(Nc3ncc(Cl)c(NCCC(=O)NC)n3)cc2CC1,206
9,N=C(Nc1ccccc1CN1CCOCC1)N1CCOCC1,118 to 119
10,Cc1c(C)c2c(c(C)c1O)C(c1ccc(N3CCOCC3)cc1)C(C)(C)O2 (stereo unspecified),91 to 93
11,CCc1c(OC)c(Cl)cc(C(N)=O)c1OC,83 to 84
12,COc1cc(OC)nc(NS(=O)(=O)c2ccccc2N(C)S(C)(=O)=O)n1,228 to 230
13,CCCCC(O)CN1N=CCCC1c1ccc(F)cc1 (stereo unspecified),75 to 77
14,Cc1c(C(O)C(F)(F)F)oc2c(Br)cccc12 (stereo unspecified),93
15,COc1c(C)c(N2CCN(c3ccc(C(F)(F)F)cc3)CC2)c(C)c2c1OC(C)C2 (stereo unspecified),142 to 145
16,COC(=O)C1Oc2ccccc2C(C)c2cc(Cl)ccc2O1 (stereo unspecified),124 to 136
17,O=C(CNC(=O)c1ccc(/C=C/C(c2cc(Cl)c(Cl)c(Cl)c2)C(F)(F)F)cc1Cl)NCC(F)(F)F (stereo unspecified),83 to 85
18,CCC(C)(C)NC(=O)c1cnc2cccc(C)n2c1=O,87 to 89
19,O=C(Nc1ccc(F)cc1F)NC1(c2cccs2)CCCCC1,175 to 177
20,CNC(=O)ON=CC=NOC(C)=O,138
21,O=C1OC(=O)c2c1ccc1ncccc21,247 to 250
22,CC(=O)Nc1nc(CC(=O)O)ns1,161 to 163

row,Structure (SMILES),melting point [°C]
1,O=C(O)CN1C(=O)C(=Cc2ccc([N+](=O)[O-])o2)SC1=S,238 to 242
2,CC(C)N1C(=O)NC(NC2CC2)NC1=O,237 to 239
3,CCOC(=O)Cc1sc(Sc2ncccc2C(=O)OCC)nc1C,181 to 183
4,O=C1c2ccccc2C(=O)N1COc1ccncc1,129 to 131
5,Cc1noc(-c2c(C)nc(Br)n2C)n1,89
6,CC(C)c1cc(-c2ccc(F)cc2)c(CO)c(C(C)C)n1,88 to 90
7,CC(=O)OCc1ccc([N+](=O)[O-])cc1,77 to 78
8,CC(=O)N1CC(=O)N/C(=C\c2ncoc2C(C)(C)C)C1=O,145 to 147
9,COc1ccc2c(c1)[C@@H](O)[C@H](Br)CO2 (relative stereo),67 to 72
10,CNc1cc(C(O)CS(C)(=O)=O)cc(N(C)C(C)=O)c1C (stereo unspecified),191 to 192
11,CC(=O)c1c(-c2ccccc2)sc(-c2ccncc2)c1C,111 to 112
12,Cc1c(O)c(=O)[nH]c2ccccc2c1=O,252
13,COCCOc1ccccc1OCC(O)CN1C(C)CCCC1C (stereo unspecified),92 to 94
14,Cc1ccc(S(=O)(=O)n2cc(Br)c(C)c2C=O)cc1,152 to 155
15,O=C(O)CCn1cnc2c(Cl)ncnc21,163 to 165
16,Cc1c(SCc2ccco2)ccnc1CSc1ccncc1,126 to 128
17,Cc1cnc(I)c(OCc2ccccc2)c1,83 to 85
18,Cc1cnc(N2CCN(CC[C@H]3CC[C@H](NC(=O)CC4CCOCC4)CC3)CC2)c2c1OCC2,199
19,Nc1nccc(OCCc2ccccc2)c1N,86 to 87
20,CN(C)c1ccc(S(=O)(=O)N2CCCC2=O)cc1,202 to 204
21,COc1ccc2c(c1)C13CCCC4OC41C(C2)N(C(=O)C1CC1)CC3 (stereo unspecified),134 to 136
22,CC1(C)Nc2nc(Cl)ccc2NC1=O,229

# Next, values leading:
row,melting point [°C],Structure (SMILES)
1,160 to 161,O=C(O)CCSC(SCCC(=O)O)c1cccc(CCc2ccc3ccc(Cl)cc3n2)c1
2,138 to 139,CC(C)(CNc1ccnc2cc(Cl)ccc12)NCc1ccc(Cl)cc1Cl
3,224,O=C1CN(C(=O)Cc2ccccc2Cl)N(Cc2ccc(Cl)cc2)C(=O)N1
4,128,COc1cc(CC(C)=O)ccc1OCC(O)CN1CCN(c2ccccc2C)CC1 (stereo unspecified)
5,71 to 72,C=CC(=O)NC(C)(C)c1ccc(CC(=O)OCCC)cc1
6,146,CCOC(=O)CC(c1ccccc1)N(C(=O)CNC(=O)Nc1cccc(C)c1)c1ccccc1 (racemic)
7,209 to 211,O=C(Nc1c(C(O)(C(F)(F)F)C(F)(F)F)ccc2ccccc12)c1ccccc1Cl
8,223 to 225,NS(=O)(=O)c1ccc(-c2c(-c3ccccc3)[nH]c3ccccc23)cc1
9,205 to 206,O=C(c1ccc(-c2ccccc2)cc1)N1CCc2cn[nH]c2-c2ncccc21
10,92 to 94,CCCCOc1cc(-c2ccccc2)c(OCC(=O)O)c(-c2ccccc2)c1
11,250,O=C(O)CCON=c1c2nccc3cccc(c32)n2cccc12
12,217 to 223,CC(C(=O)O)(c1ccc(N2CCOCC2)cc1)c1ccc(N2CCOCC2)cc1
13,165,O=C(c1ccccc1O)c1cccc2[nH]ccc12
14,233 to 235,CN1CC[C@@H](c2c(O)cc(O)c3c(=O)cc(-c4cc(Cl)ccc4Br)oc23)[C@@H]1CO
15,96 to 99,Cc1cc(O)ccc1Oc1ccccc1
16,137 to 138,O=C(OCC1OC(OC(=O)c2ccccc2)C(O)C1OC(=O)c1ccccc1)c1ccccc1 (stereo unspecified)
17,169 to 172,O=[N+]([O-])c1c(Nc2ccc(O)cc2)ncnc1-c1ccc(C(F)(F)F)cc1F
18,124 to 127,O=C1NC(=O)C(Cc2ccc(OCCON=Cc3ccc(-c4ccccc4)cc3)cc2)S1 (stereo unspecified)
19,211 to 213,COCCOc1cc2c(cc1-c1ccccc1F)NC(=O)CC(c1cccc(C#N)c1)=N2

row,melting point [°C],Structure (SMILES)
1,137 to 139,CCCc1c(OCCCCCCc2ccc(C(=O)c3cccc(C(=O)O)c3)cc2CCC(=O)O)ccc2c1OCCC2=O
2,222 to 223,COc1ccc(CNc2n[nH]c3ncnc(Nc4cccc(Cl)c4)c23)cc1
3,202 to 204,COCCc1nc2c(N)nc3ccccc3c2n1Cc1ccccc1
4,127 to 130,CC(CCCc1ccccc1)c1cc(O)c2c(c1)N1C(=O)CCC1CC2=O (stereo unspecified)
5,189 to 191,COc1ccc(N2CCN(c3c(C)c(C)c4c(c3C)C(c3ccc(C)cc3)C(C)(C)O4)CC2)cc1 (stereo unspecified)
6,98 to 101,CSc1nccc(CC(=O)c2cccc(Br)c2)n1
7,158 to 162,Cc1cc(-c2ccccc2)n2nc(C(=O)N(C)C3CCCCC3)cc2n1
8,157 to 159,CCCC(CCC)c1ccc(OCc2ccc(-c3csc(COc4cncc(C(=O)O)c4)c3)cc2)cc1
9,158,COc1cc2c(cc1OC)CN(CCCOc1ccc(NC(=O)c3nc4cc(C)c(C)cc4nc3OC)cc1)CC2
10,129 to 133,CCCCCCCCCCCCCCCC(=O)Nc1cc(NC(=O)CCCCCCCCCCCCCCC)cc(C(=O)N(CC(=O)O)CC(=O)O)c1
11,182 to 185,CSC1C(=O)Nc2cccc(-c3ccccc3)c21 (stereo unspecified)
12,114 to 116,O=C(O)CCCCCOC(c1ccccc1)(c1ccccc1)c1ccccc1
13,206 to 207,O=C1c2ccccc2C2(O)Oc3ccc([N+](=O)[O-])cc3C12O (stereo unspecified)
14,161 to 162,O=S(=O)(CCCCl)Nc1ccc(Oc2cccc3cccnc23)cc1
15,86,CCOCC(O)(c1cccnc1)C(C)c1ccc(Cl)cc1Cl (stereo unspecified)
16,170 to 172,CC(C)c1ccc(CCNc2ncnc3c(F)cccc23)cc1
17,114 to 115,Cc1nc(-c2cc(CCc3ccccc3)no2)sc1C(=O)NCc1ccccc1
18,90 to 91,CCOC(=O)c1nccn1-c1nc(-c2ccc(Cl)cc2)c(CCCOc2ccccc2OC)o1
19,> 260,COc1ccc(-c2cnc3cc4cnn(CC(=O)O)c4cc3n2)cc1F

row,melting point [°C],Structure (SMILES)
1,138 to 139,CCC(CC)n1nc2c(C(F)(F)F)cccc2c1-c1ccc(OC)cc1OC
2,180 to 183,COc1c(Cl)ccc(-c2cc(N)c(Cl)c(C(=O)NOC3CCCO3)n2)c1F (stereo unspecified)
3,90 to 92,CCCOc1ccccc1-c1nc(CO)c[nH]1
4,289,COc1ccc(C(=O)Nn2c(=O)[nH]c3ccccc3c2=O)cc1
5,201 to 203,COc1cc(C(=O)N(C(C)C)C2CCCCC2)ccc1Cn1c(C)nc2ncccc21
6,97 to 99,CCCCCCCCOc1c(Cl)c(Sc2ccccc2N)c(OCCCCCCCC)c2c1C(=N)NC2=N
7,120 to 122,O=c1c2cccnc2c(-c2cccc(Cl)c2)cn1CC1CC1
8,66 to 69,O=C(NCCO)/C(=C/c1ccc(OC2CC2)cc1)NC(=O)c1ccc(OCCc2ccc(Cl)cc2)cc1
9,114 to 117,CCCc1c(OCCCCCC(=O)c2ccc(OC)c(OC)c2)ccc(C(=O)O)c1O
10,207,CCOC(=O)c1c(N2CCN(C(=O)c3ccco3)CC2)c2cc(F)cnc2[nH]c1=O
11,103 to 105,CCOC(=O)OCCn1nc(-c2cc(C(C)(C)C)c(O)c(C(C)(C)C)c2)c2cccnc21
12,45,CCCCCCCCCCCCCCCCOc1cc(C(=O)OCC)cc(C(=O)OCC)c1
13,80 to 83,CCc1ccc(Cc2c(OCc3ccccc3)n[nH]c2C)cc1
14,155,Cn1nc(-c2cccnc2)c2c(C(F)(F)F)cc(-c3cccc(CN4CCOCC4)c3)nc21
15,> 250,CS(=O)(=O)Nc1cc2oc(O)cc(=O)c2cc1Oc1ccccc1
16,57 to 59,CCc1ncc(CCCOc2c(C)cc(-c3noc(C(F)(F)F)n3)cc2C)s1
17,49.5 to 51,Cc1ccc(C(=S)CCCCCC#N)cc1
18,104,CCOC(=O)c1cnn(-c2ccc(OCC(C)CC)c(C#N)c2)c1 (stereo unspecified)
19,220 to 222,CC12CC(O)C3(F)C(CCC4=CC(=O)C=CC43C)C1CC=C2SCOC(=O)c1ccccc1 (stereo unspecified)
